From patent US20250129096A1, “ANNULATED 2-AMINO-3-CYANO THIOPHENES AND DERIVATIVES FOR THE TREATMENT OF CANCER” (Boehringer Ingelheim Int'l GmbH Corp., priority 2021, published 2025)

Tested on: A375 cells (melanoma, wt, B-Raf mutant)
Assay: A375 CTG proliferation assay (120 h), negative control
Type: cell-based
Conditions: Homo sapiens, A-375, CellTiter-Glo, negative control cell line
Method: A375 cells (ATCC CRL-1619) are dispensed into 384-well plates, flat and clear bottom (Greiner, PNr. 781091) at a density of 300 cells per well in 60 μL DMEM (Sigma D6429)+10% Fetal Calf Serum (HyClone, PNr.: SH30084.03) and incubated at 37° C. in a CO2 incubator overnight. The next day, compounds (10 mM stock in DMSO) are added at logarithmic dose series using the HP Digital Dispenser D300 (Tecan), including DMSO controls. Plates are incubated for 120 h, and cell viability is measured using CellTiter-Glo luminescent cell viability reagent (Promega product code G7570). Viability (stated as percent of control) is defined as relative luminescence units RLU of each well divided by the RLU of cells in DMSO controls. IC50 values are determined from viability measurements by non-linear regression using a four-parameter model.

SMILES: C[C@H]1CNCCN1c1nccc(-c2noc3c2CCC[C@@]32CCCc3sc(N)c(C#N)c32)n1 [IIf-1]
- IC50: > 3000 nM
